Source: PubChem BioAssay AID248 (DTP/NCI, 2004)
Inconclusive results and toxic doses are left out. Cut-off read from the data, not from the text of the source: active = T/C of 150% or more; inactive = T/C below 125%.

Test system: L1210 leukemia ip in BDF1 mice, survival T/C
Assay: NCI In Vivo Anticancer Drug Screen. Data for tumor model L1210 Leukemia (intraperitoneal) in B6D2F1 (BDF1) mice
Conditions: endpoint: mean survival time, higher = longer survival
Method in brief: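 Tumor was transplanted into mice, which were then dosed with test compound or vehicle alone. Survival was recorded for each group, and the treated figure was expressed relative to the control figure.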

[1] = dose: 50.0 mg/kg/injection, schedule: Q04DX003 (ip), vehicle: saline
[2] = dose: 100.0 mg/kg/injection, schedule: Q04DX003 (ip), vehicle: saline
[3] = dose: 100.0 mg/kg/injection, schedule: Q04DX003 (ip), vehicle: saline with Tween-80
[4] = dose: 200.0 mg/kg/injection, schedule: Q04DX003 (ip), vehicle: saline with Tween-80
[5] = dose: 400.0 mg/kg/injection, schedule: Q04DX003 (ip), vehicle: saline with Tween-80
[6] = dose: 100.0 mg/kg/injection, schedule: Q04DX002 (ip), vehicle: saline with Tween-80
[7] = dose: 200.0 mg/kg/injection, schedule: Q04DX002 (ip), vehicle: saline with Tween-80

Measured: T/C

COc1cc2c(cc1OC)-c1cc3cc(OC)c(OC)cc3c(C)[n+]1CC2
inactive: dose: 12.5 mg/kg/injection, schedule: Q04DX002 (ip), vehicle: Klucel (hydroxypropylcellulose) (HPC) 102 % of control | dose: 25.0 mg/kg/injection, schedule: Q04DX002 (ip), vehicle: Klucel (hydroxypropylcellulose) (HPC) 105 % of control | dose: 50.0 mg/kg/injection, schedule: Q04DX002 (ip), vehicle: Klucel (hydroxypropylcellulose) (HPC) 105 % of control

NC(N)=NCCCS
inactive: dose: 75.0 mg/kg/injection, schedule: Q01DX001 (ip), vehicle: saline 104 % of control | dose: 150.0 mg/kg/injection, schedule: Q01DX001 (ip), vehicle: saline 104 % of control | dose: 300.0 mg/kg/injection, schedule: Q01DX001 (ip), vehicle: saline 104 % of control

CC(=O)Nc1ccc(S(=O)(=O)CO)cc1
inactive: dose: 100.0 mg/kg/injection, schedule: Q01DX001 (ip), vehicle: Klucel (hydroxypropylcellulose) (HPC) 102 % of control | dose: 200.0 mg/kg/injection, schedule: Q01DX001 (ip), vehicle: Klucel (hydroxypropylcellulose) (HPC) 102 % of control | dose: 400.0 mg/kg/injection, schedule: Q01DX001 (ip), vehicle: Klucel (hydroxypropylcellulose) (HPC) 102 % of control

Nc1nc(Cl)c(C=O)c(Cl)n1
inactive: dose: 25.0 mg/kg/injection, schedule: Q01DX001 (ip), vehicle: carboxymethylcellulose (CMC) 97 % of control | dose: 50.0 mg/kg/injection, schedule: Q01DX001 (ip), vehicle: carboxymethylcellulose (CMC) 97 % of control | dose: 100.0 mg/kg/injection, schedule: Q01DX001 (ip), vehicle: carboxymethylcellulose (CMC) 94 % of control | dose: 200.0 mg/kg/injection, schedule: Q01DX001 (ip), vehicle: carboxymethylcellulose (CMC) 103 % of control

CC(=O)C(C)(NCc1ccccc1)c1ccccc1 (configuration not stated)
inactive: [1] 97 % of control | dose: 100.0 mg/kg/injection, schedule: Q04DX003 (ip), vehicle: other 95 % of control | [2] 97 % of control | dose: 200.0 mg/kg/injection, schedule: Q04DX003 (ip), vehicle: other 93 % of control | dose: 200.0 mg/kg/injection, schedule: Q04DX003 (ip), vehicle: saline 102 % of control | dose: 400.0 mg/kg/injection, schedule: Q04DX003 (ip), vehicle: other 87 % of control

CC(=O)OC1CCSCC1
inactive: [3] 101 % of control | [4] 93 % of control | [5] 103 % of control

Cc1ccc(-n2c(=O)[nH]c3c(c2=O)C(c2ccc(Cl)cc2)C(C)(C)O3)cc1 (configuration not stated)
inactive: dose: 12.5 mg/kg/injection, schedule: Q01DX001 (ip), vehicle: saline 97 % of control | dose: 12.5 mg/kg/injection, schedule: Q04DX003 (ip), vehicle: saline 107 % of control | dose: 25.0 mg/kg/injection, schedule: Q04DX003 (ip), vehicle: saline 101 % of control | dose: 50.0 mg/kg/injection, schedule: Q01DX001 (ip), vehicle: saline 96 % of control | [1] 90 % of control | dose: 75.0 mg/kg/injection, schedule: Q04DX003 (ip), vehicle: saline 97 % of control | dose: 113.0 mg/kg/injection, schedule: Q04DX003 (ip), vehicle: saline 94 % of control | dose: 169.0 mg/kg/injection, schedule: Q04DX003 (ip), vehicle: saline 95 % of control

O=c1[nH]nnc2nc[nH]c12
inactive: dose: 25.0 mg/kg/injection, schedule: Q01DX001 (ip), vehicle: steriod suspending solution 109 % of control | dose: 46.1 mg/kg/injection, schedule: Q01DX001 (ip), vehicle: steriod suspending solution 100 % of control | dose: 50.0 mg/kg/injection, schedule: Q01DX001 (ip), vehicle: steriod suspending solution 113 % of control | dose: 65.9 mg/kg/injection, schedule: Q01DX001 (ip), vehicle: steriod suspending solution 100 % of control | dose: 94.2 mg/kg/injection, schedule: Q01DX001 (ip), vehicle: steriod suspending solution 102 % of control | dose: 100.0 mg/kg/injection, schedule: Q01DX001 (ip), vehicle: steriod suspending solution 109 % of control | dose: 134.5 mg/kg/injection, schedule: Q01DX001 (ip), vehicle: steriod suspending solution 97 % of control | dose: 192.1 mg/kg/injection, schedule: Q01DX001 (ip), vehicle: steriod suspending solution 101 % of control | dose: 200.0 mg/kg/injection, schedule: Q01DX001 (ip), vehicle: steriod suspending solution 100 % of control | dose: 274.4 mg/kg/injection, schedule: Q01DX001 (ip), vehicle: steriod suspending solution 103 % of control | dose: 392.0 mg/kg/injection, schedule: Q01DX001 (ip), vehicle: steriod suspending solution 108 % of control | dose: 400.0 mg/kg/injection, schedule: Q01DX001 (ip), vehicle: steriod suspending solution 105 % of control | dose: 560.0 mg/kg/injection, schedule: Q01DX001 (ip), vehicle: steriod suspending solution 95 % of control | dose: 800.0 mg/kg/injection, schedule: Q01DX001 (ip), vehicle: steriod suspending solution 96 % of control

O=P(NCCCl)(NCCCl)c1ccccc1
inactive: dose: 100.0 mg/kg/injection, schedule: Q04DX002 (ip), vehicle: Klucel (hydroxypropylcellulose) (HPC) 118 % of control | dose: 200.0 mg/kg/injection, schedule: Q04DX002 (ip), vehicle: Klucel (hydroxypropylcellulose) (HPC) 100 % of control | dose: 400.0 mg/kg/injection, schedule: Q04DX002 (ip), vehicle: Klucel (hydroxypropylcellulose) (HPC) 96 % of control

Cc1ccc([Si](O)(c2ccc(C)cc2)c2ccc(C)cc2)cc1
inactive: dose: 100.0 mg/kg/injection, schedule: Q01DX001 (ip), vehicle: other 97 % of control | dose: 200.0 mg/kg/injection, schedule: Q01DX001 (ip), vehicle: other 97 % of control | dose: 400.0 mg/kg/injection, schedule: Q01DX001 (ip), vehicle: other 100 % of control

CC1(C)C2CC3C(=CCC4C(=O)OC(=O)C43)C1C2 (configuration not stated)
inactive: dose: 100.0 mg/kg/injection, schedule: Q01DX009 (ip), vehicle: Klucel (hydroxypropylcellulose) (HPC) 104 % of control | dose: 100.0 mg/kg/injection, schedule: Q04DX003 (ip), vehicle: Klucel (hydroxypropylcellulose) (HPC) 101 % of control | dose: 200.0 mg/kg/injection, schedule: Q01DX009 (ip), vehicle: Klucel (hydroxypropylcellulose) (HPC) 100 % of control | dose: 200.0 mg/kg/injection, schedule: Q04DX003 (ip), vehicle: Klucel (hydroxypropylcellulose) (HPC) 100 % of control | dose: 400.0 mg/kg/injection, schedule: Q04DX003 (ip), vehicle: Klucel (hydroxypropylcellulose) (HPC) 100 % of control

Cc1ccc(S(=O)(=O)OCC(=O)O)cc1
inactive: [3] 95 % of control | [4] 95 % of control | [5] 100 % of control

O=c1[nH][nH]c(=O)n1-c1ccccc1
inactive: dose: 25.0 mg/kg/injection, schedule: Q01DX009 (ip), vehicle: saline with Tween-80 96 % of control | dose: 50.0 mg/kg/injection, schedule: Q01DX009 (ip), vehicle: saline with Tween-80 94 % of control | dose: 100.0 mg/kg/injection, schedule: Q01DX009 (ip), vehicle: saline with Tween-80 100 % of control | [6] 100 % of control | dose: 177.0 mg/kg/injection, schedule: Q04DX002 (ip), vehicle: saline with Tween-80 95 % of control | dose: 200.0 mg/kg/injection, schedule: Q01DX009 (ip), vehicle: saline with Tween-80 93 % of control | [7] 103 % of control | dose: 266.0 mg/kg/injection, schedule: Q04DX002 (ip), vehicle: saline with Tween-80 98 % of control | dose: 400.0 mg/kg/injection, schedule: Q01DX009 (ip), vehicle: saline with Tween-80 93 % of control | dose: 600.0 mg/kg/injection, schedule: Q04DX002 (ip), vehicle: saline with Tween-80 95 % of control

COC(=O)C1=C(C(=O)OC)C2OC1C(COC(C)=O)=C2COC(C)=O
inactive: [2] 93 % of control

CC(=O)NC1CCC(Cc2ccccc2)CC1 (configuration not stated)
inactive: [6] 97 % of control | [7] 90 % of control | dose: 400.0 mg/kg/injection, schedule: Q04DX002 (ip), vehicle: saline with Tween-80 116 % of control
